Experimental findings from patent publication US4943587A, “Hydroxamate derivatives of selected nonsteroidal antiinflammatory acyl residues and their use for cyclooxygenase and 5-lipoxygenase inhibition” (Warner-Lambert Company, priority 1988, dated 1990) are described below.

For series [1], the system named is Mycobacterium-induced rat footpad edema. Briefly: Mycobacterium-induced rat footpad edema (MFE) assay. It is filed as in vivo. Particulars: swelling at 72 h; for ED40: Rattus norvegicus, po, probit analysis, read-out: MFE ID40 (dose at which swelling is inhibited by 40%). As to the method: Mycobacterium - Induced Rat Footpad Edema Assay (MFE): Protocol
Myobacterium butyricum (5 mg/ml) is suspended in paraffin oil by sonication for ten minutes in an ice bath. Footpad edema is induced on Day 0 by injecting 0.1 ml of the Mycobacterium mixture into the left hindpaw of lightly anesthetized rats. Swelling in the injected hindpaw is determined by mercury plethysmography seventy-two hours after injection. Groups of rats are treated with test compounds (suspended in 0.5% hydroxypropyl methylcellulose with 0.2% Tween-80) or vehicle one hour before Myobacterium injection and on Days 1 and 2. Inhibition of swelling is determined by comparing the change in hindpaw volume in compound- and vehicle-treated rats. An ID40 (the dose at which swelling is inhibited by 40%) was calculated by probit analysis.

Series [2] relates to Carrageenan-induced rat foot paw edema. Briefly: Carrageenan-induced rat foot paw edema (CFE-2) assay. It is filed as in vivo. To be noted: read-out: CFE % Inhibition @ Dose; for inhibition in vivo at 30 mg/kg: 30 mg/kg PO; for inhibition in vivo at 30 mg/kg / inhibition in vivo at 10 mg/kg: 1 h before carrageenan, edema at 5 h; for inhibition in vivo at 10 mg/kg: 10 mg/kg PO. Here is the method:
Carrageenan-Induced Rat Foot Paw Edema-2 (CFE-2) Assay: Protocol
Carrageenan solution (1% w/v) is prepared by dissolving 100 mg carrageenan (Marine Colloidal Div., Springfield, N.J.) in 10 ml of sterile saline (0.9%) solution (Travenol). The solution is vortexed for thirty to forty-five minutes. Animals are dosed with compound one hour before carrageenan challenge. Foot paw edema is induced by injecting 0.05 ml of the 1% carrageenan subcutaneously into the plantar portion of the right hind paw of each rat under light anesthesia. Initial foot paw volume is measured immediately following carrageenan challenge using mercury plethysmography (Buxco Electronics). Edema is measured five hours after carrageenan. The difference between the five-hour and the initial paw volume is expressed as delta edema. The delta edema for each test group of animals is used to calculate the percent inhibition of edema achieved by the compound at the test dose compared with the vehicle control group. The ID25 (the dose at which swelling is inhibited by 25%) was calculated by probit analysis for the dose at which a result of 25 percent inhibition occurs.
Background: The carrageenan paw model is a standard test of acute inflammation.

Series [3] addresses T1, 5-Lipoxygenase (Rattus norvegicus, UniProt P12527).
T1 construct: host or cells: RBL-1 (rat basophilic leukemia)
T1 sequence (P12527 1-673): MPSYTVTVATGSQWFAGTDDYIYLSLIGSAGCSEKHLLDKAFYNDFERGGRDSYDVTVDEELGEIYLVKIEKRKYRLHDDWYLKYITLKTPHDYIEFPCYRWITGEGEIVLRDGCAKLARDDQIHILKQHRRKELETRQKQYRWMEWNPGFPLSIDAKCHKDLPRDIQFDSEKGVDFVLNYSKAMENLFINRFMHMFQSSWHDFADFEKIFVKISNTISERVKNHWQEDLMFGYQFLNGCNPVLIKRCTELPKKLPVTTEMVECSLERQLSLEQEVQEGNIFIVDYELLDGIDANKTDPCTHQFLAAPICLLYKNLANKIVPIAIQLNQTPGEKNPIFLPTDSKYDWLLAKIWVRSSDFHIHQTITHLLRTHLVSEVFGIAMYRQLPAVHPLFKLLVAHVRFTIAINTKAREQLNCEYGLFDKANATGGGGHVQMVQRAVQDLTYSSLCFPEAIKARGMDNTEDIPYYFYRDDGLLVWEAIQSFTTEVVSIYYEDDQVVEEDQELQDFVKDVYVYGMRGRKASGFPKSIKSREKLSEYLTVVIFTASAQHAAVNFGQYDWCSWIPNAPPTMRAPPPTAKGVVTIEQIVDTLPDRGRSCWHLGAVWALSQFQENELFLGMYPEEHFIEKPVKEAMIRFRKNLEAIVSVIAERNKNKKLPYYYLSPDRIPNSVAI
Briefly: ARBL: RBL-1 whole cell 5-lipoxygenase assay (inhibition of LTB4 formation). To be noted: RBL-1 cells, A23187 5 μM. Format: cell-based. As to the method:
(§1) ARBL/ARBC Whole Cell 5-Lipoxygenase and Cyclooxygenase Assays
(§2) The rat basophilic leukemia cell line (RBL-1) was obtained from the American Type Culture Collection (Rockville, Md.).
(§3) Radioimmuno assay (RIA) kits of LTB4 and PGF2α were obtained from Amersham (Arlington Heights, Ill.) and Seragen (Boston, Mass.) respectively.
RBL-1 cells are grown in suspension culture in Eagle's minimum essential medium supplemented with 12% fetal bovine serum at 37° C. in an incubator supplied with air-5% carbon dioxide. Cells are harvested by centrifugation. They are washed with cold phosphate buffered saline pH 7.4 (PBS; NaCl, 7.1 g; Na2 PO4, 1.15 g; KH2 PO4, 0.2 g; and KCl, 0.2 g/l). Cells are finally suspended in PBS containing 1.0 mM calcium at a density of 2×10^6 cells/ml. Cells are incubated with and without test agent (in DMSO) (1% DMSO is without effect on arachidonic acid metabolism) for ten minutes at room temperature. Calcium ionophore A23187 (5 μM) is added and cells are incubated for seven minutes at 37° C. The reaction is stopped by chilling the tubes on ice for ten minutes. Cells are separated by centrifugation and the supernatant is stored at -20°. Aliquots (100 μl) are analyzed for LTB4 and PGF2α using radioimmuno assay kits as provided by the supplier.

For series [4], the target named is T2, Cyclooxygenase (Rattus norvegicus, UniProt Q63921).
T2 construct: host or cells: RBL-1 (rat basophilic leukemia)
T2 sequence (Q63921 27-602): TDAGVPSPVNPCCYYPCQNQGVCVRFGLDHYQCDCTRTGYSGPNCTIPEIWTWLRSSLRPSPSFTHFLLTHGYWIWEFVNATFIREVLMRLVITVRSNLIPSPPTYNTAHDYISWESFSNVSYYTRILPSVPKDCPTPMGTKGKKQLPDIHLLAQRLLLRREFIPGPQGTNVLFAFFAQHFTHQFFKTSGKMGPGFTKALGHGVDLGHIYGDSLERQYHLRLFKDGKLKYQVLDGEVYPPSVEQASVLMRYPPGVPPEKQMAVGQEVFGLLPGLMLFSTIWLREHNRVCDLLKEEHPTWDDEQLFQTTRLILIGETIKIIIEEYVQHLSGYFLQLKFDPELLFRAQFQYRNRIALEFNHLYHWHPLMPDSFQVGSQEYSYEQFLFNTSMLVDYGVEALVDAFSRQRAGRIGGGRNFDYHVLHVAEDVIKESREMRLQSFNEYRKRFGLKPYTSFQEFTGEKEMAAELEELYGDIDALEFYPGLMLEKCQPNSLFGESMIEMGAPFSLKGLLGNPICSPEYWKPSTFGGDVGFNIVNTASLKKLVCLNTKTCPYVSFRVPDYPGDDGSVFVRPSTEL
Briefly: ARBC: RBL-1 whole cell cyclooxygenase assay (inhibition of PGF2α formation). It is filed as cell-based. To be noted: RBL-1 cells, A23187 5 μM; for % inhibition ARBC (RBL whole cell cyclooxygenase, PGF2α inhibition): @ 32 (μM); for IC50: PGF2α formation.
From the text: as §1, §2, §3
(§4) Cells are harvested by centrifugation. They are washed with cold phosphate buffered saline pH 7.4 (PBS; NaCl, 7.1 g; Na2 PO4, 1.15 g; KH2 PO4, 0.2 g; and KCl, 0.2 g/l). […] Calcium ionophore A23187 (5 μM) is added and cells are incubated for seven minutes at 37° C. The reaction is stopped by chilling the tubes on ice for ten minutes. Cells are separated by centrifugation and the supernatant is stored at -20°. Aliquots (100 μl) are analyzed for LTB4 and PGF2α using radioimmuno assay kits as provided by the supplier.

Series [5] relates to gastric ulcers in rats. Briefly: Gastric ulcerogenicity (UD). It is filed as in vivo, Male outbred Wistar rats. To be noted: 100 mg/kg PO, fasted rats, 6 h. Here is the method: (§5) Gastric Ulcerogenicity (UD) Protocol
(§6) Male outbred Wistar rats (100-250 gms) were fasted for twenty-four hours. After fasting, test compounds were administered orally (in 2 ml/Kg of 0.5% hydroxypropyl methylcellulose) and the rats were denied access to food and water for six more hours. The rats were then sacrificed with CO2 so that the stomachs could be removed, opened along the greater curvature, and evaluated for the presence of gastric ulcers. Results are expressed as the percent of rats with gastric ulcers at a given dose.

The subject of series [6] is Cyclooxygenase. Briefly: ARBC: RBL-1 whole cell cyclooxygenase assay (inhibition of PGF2α formation). It is filed as cell-based, rat. To be noted: ARBL/ARBC IC50; >1.0 cyclooxygenase selective, <1.0 5-lipoxygenase selective.
From the text: as §1, §2, §3, §4

A short description of series [7]: Gastric ulcerogenicity (UD). Particulars: rat, in vivo, po. It is filed as in vivo, Male outbred Wistar rats. As to the method:
as §5, §6

Turning to `CC1=C(CC(=O)N(C)O)c2cc(F)ccc2/C1=C\c1ccc([S+](C)[O-])cc1` (stereo not drawn) [Example 1, (Z)-6-fluoro-N-hydroxy-N,2-dimethyl-3-[[4-(methylsulfinyl)phenyl]methylene]-3H-indene-1-acetamide], the “MFE % Inhibition @ Dose” value in series [1] (10 mg/kg PO) was 30%. Moreover, in series [2], the inhibition in vivo at 30 mg/kg came out at 15%. Besides, the IC50 (in general, the point on the concentration scale where inhibition reaches its midpoint) in series [3] was found to be 1 µM. In series [4], the “% inhibition ARBC (RBL whole cell cyclooxygenase, PGF2α inhibition)” value (from here on “% inhibition ARBC”) was 0%.

In turn, `CONC(=O)CC1=C(C)/C(=C/c2ccc([S+](C)[O-])cc2)c2ccc(F)cc21` (stereo not drawn) [Example 2, (Z)-6-fluoro-N-methoxy-2-methyl-3-[[4-(methylsulfinyl)phenyl]methylene]-3H-indene-1-acetamide] returned an IC50 in series [3] of 26.4 µM. For the same compound, the “% inhibition ARBC” value in series [4] is 0%.

Regarding `CC1=C(CC(=O)NO)c2cc(F)ccc2/C1=C\c1ccc([S+](C)[O-])cc1` (stereo not drawn) [Example 2A, (Z)-6-fluoro-N-hydroxy-2-methyl-3-[[4-(methylsulfinyl)phenYl]methylene]-3H-indene-1-acetamide], the “MFE % Inhibition @ Dose” value in series [1] (50 mg/kg PO) is recorded as 53%. Moreover, in series [2], the inhibition in vivo at 30 mg/kg turned out to be 31%. Further, the IC50 in series [3] is 12.9 µM. Further, the “% inhibition ARBC” value in series [4] is reported as 0%.

As to `COc1ccc2c(c1)c(CC(=O)N(C)O)c(C)n2C(=O)c1ccc(Cl)cc1` [Example 3, 1-(4-Chlorobenzoyl)-N-hydroxy-5-methoxy-N,2-dimethyl-1H-indole-3-acetamide], the ED40 in series [1] is below 2 mg/kg. Moreover, the inhibition in vivo at 10 mg/kg in series [2] amounted to 29%. Besides, it took 1.4 µM to reach half-maximal inhibition in series [3] (IC50). Also, the “percent of rats with gastric ulcers at a given dose (UD50 column)” value in series [5] is 10%.

For the compound `CONC(=O)Cc1c(C)n(C(=O)c2ccc(Cl)cc2)c2ccc(OC)cc12` [Example 4, 1-(4-Chlorobenzoyl)-N,5-dimethoxy-2-methyl-1H-indole-3-acetamide], in series [2], the inhibition in vivo at 10 mg/kg amounted to 40%. Also, the IC50 was 24 µM in series [3] and 200 nM in series [4]. Further, in series [6], the “RATIO, selectivity of inhibition” value turned out to be 120. The same compound gave a TD50 at 6 h in series [7] of 42 mg/kg.

For the compound `COc1ccc2c(c1)c(CC(=O)N(O)C(C)C)c(C)n2C(=O)c1ccc(Cl)cc1` [Example 5, 1-(4-Chlorobenzoyl)-N-hydroxy-5-methoxy-2-methyl-N-(1-methylethyl)-1H-indole-3-acetamide], the ED40 in series [1] is 0.82 mg/kg. For the same compound, the inhibition in vivo at 10 mg/kg in series [2] turned out to be 27%. Further, in series [3], the IC50 was 0.9 µM.

Turning to `COc1ccc2c(c1)c(CC(=O)N(O)C1CCCCC1)c(C)n2C(=O)c1ccc(Cl)cc1` [Example 6, 1-(4-Chlorobenzoyl)-N-cyclohexyl-N-hydroxy-5-methoxy-2-methyl-1H-indole-3-acetamide], the ED40 in series [1] worked out at 4.7 mg/kg. In addition, in series [2], the inhibition in vivo at 10 mg/kg was 22%. The IC50 came out at 1.6 µM in series [3] and 100 nM in series [4]. Moreover, in series [6], the “RATIO, selectivity of inhibition” value amounted to 16.0.

Take `COc1ccc2c(c1)c(CC(=O)O)c(C)n2C(=O)c1ccc(Cl)cc1` [Indomethacin, 1(p-chlorobenzoyl)-5-methoxy-2-methylindole-3-acetic acid, reference compound]: the ED40 in series [1] is 0.21 mg/kg. Also, in series [2] (po, 5 h), the inhibition in vivo at 5 mg/kg is 36%. In addition, the IC50 in series [3] was above 100 µM.

On to `COc1ccc2c(c1)c(CC(=O)NO)c(C)n2C(=O)c1ccc(Cl)cc1` [Oxametacin, reference compound], for which the inhibition in vivo at 30 mg/kg in series [2] is 46%. In addition, it took 7.5 µM to reach half-maximal inhibition in series [3] (IC50). Further, in series [7], the TD50 at 6 h is 103 mg/kg.
